Measured values taken from ChEMBL document CHEMBL1201862, “PubChem BioAssay data set” (2004).
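1) Cells in 96-well plates. 2) Compound, 48 h, 5 concentrations. 3) Linear interpolation between surrounding doses. 4) Unreached endpoint = highest concentration. GI50 is the concentration that inhibits growth by half.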 Activity calls are given as the source filed them. Rule as the data show it: active = GI50 up to about 1.1 µM and inactive = higher.

Assays:
Assay in all cases: NCI anticancer screen, dose series, 48 h
A549 = test system: A549
ACHN = test system: ACHN
BT-549 = test system: BT-549
CAKI-1 = test system: CAKI-1
DLD-1 = test system: DLD-1
DU-145 = test system: DU-145
EKVX = test system: EKVX
HCC 2998 = test system: HCC 2998
HOP-62 = test system: HOP-62
HT-29 = test system: HT-29
MDA-MB-231 = test system: MDA-MB-231
MDA-MB-435 = test system: MDA-MB-435
MDA-N = test system: MDA-N
RXF 393 = test system: RXF 393
SK-OV-3 = test system: SK-OV-3
TK-10 = test system: TK-10
U-251 = test system: U-251
UACC-257 = test system: UACC-257
K562 = test system: K562
MOLT-4 = test system: MOLT-4

In the case of C[C@H](N)C(=O)N[C@@H]1[C@H]2C(=C(O)C[C@@H](O)[C@@H]2O)C(=O)O[C@]1(C)C(Cl)Cl [BACTOBOLIN], the GI50 (A549) is reported as 0.187 µM (active), the GI50 (ACHN) is reported as 0.176 µM (active) and the GI50 (BT-549) is reported as 0.165 µM (active). For the same compound, the GI50 (CAKI-1) was 0.166 µM (active), the GI50 (DLD-1) was 0.24 µM (active) and the GI50 (DU-145) was 0.182 µM (active). The GI50 (EKVX) was 0.207 µM (active), the GI50 (HCC 2998) was 0.164 µM (active) and the GI50 (HOP-62) was 0.152 µM (active). For the same compound, the GI50 (HT-29) was 0.155 µM (active), the GI50 (MDA-MB-231) was 0.156 µM (active) and the GI50 (MDA-MB-435) was 0.248 µM (active). For the same compound, the GI50 (MDA-N) was 0.105 µM (active), the GI50 (RXF 393) was 0.17 µM (active) and the GI50 (SK-OV-3) was 0.271 µM (active). The GI50 (TK-10) was 0.356 µM (active), the GI50 (U-251) was 0.144 µM (active) and the GI50 (UACC-257) was 0.378 µM (active).

COc1ccc(CC2C(=O)NC(C)C(=O)N(C)C3Cc4ccc(cc4)Oc4cc(ccc4O)CC(C(=O)NC(C)C(=O)NC(C)C(=O)N2C)N(C)C3=O)cc1 (stereo not drawn) was tested, and the GI50 (ACHN) was 0.0738 µM (active), the GI50 (DLD-1) was 0.0469 µM (active) and the GI50 (DU-145) was < 0.0001 µM (active). For the same compound, the GI50 (EKVX) was 0.0175 µM (active), the GI50 (HCC 2998) was 0.0175 µM (active) and the GI50 (HOP-62) was 0.0179 µM (active). For the same compound, the GI50 (HT-29) was 0.0355 µM (active), the GI50 (K562) was 0.0175 µM (active) and the GI50 (MDA-MB-231) was < 0.0001 µM (active). For the same compound, the GI50 (MDA-MB-435) was < 0.0001 µM (active), the GI50 (MDA-N) was < 0.0001 µM (active) and the GI50 (MOLT-4) was 0.0175 µM (active). The GI50 (RXF 393) was 0.0175 µM (active), the GI50 (SK-OV-3) was 0.0175 µM (active) and the GI50 (TK-10) was 0.0257 µM (active). The GI50 (U-251) was 0.0175 µM (active) and the GI50 (UACC-257) was 0.0175 µM (active).

In the case of CN(C)CCN1C(=O)c2cccc3cc(N)cc(c23)C1=O [AMONAFIDE], the GI50 (ACHN) is reported as 0.718 µM (active), the GI50 (BT-549) is reported as 4.01 µM (inactive) and the GI50 (DLD-1) is reported as 5.38 µM (inactive). For the same compound, the GI50 (DU-145) was 2.94 µM (inactive), the GI50 (EKVX) was 5.94 µM (inactive) and the GI50 (HCC 2998) was 2.48 µM (inactive). For the same compound, the GI50 (HOP-62) was 2.43 µM (inactive), the GI50 (HT-29) was 3.3 µM (inactive) and the GI50 (K562) was 3.23 µM (inactive). For the same compound, the GI50 (MDA-MB-231) was 2.46 µM (inactive), the GI50 (MDA-MB-435) was 3.37 µM (inactive) and the GI50 (MDA-N) was 2.9 µM (inactive). For the same compound, the GI50 (MOLT-4) was 0.804 µM (active), the GI50 (RXF 393) was 4.06 µM (inactive) and the GI50 (SK-OV-3) was 4.42 µM (inactive). For the same compound, the GI50 (TK-10) was 3.89 µM (inactive), the GI50 (U-251) was 3.64 µM (inactive) and the GI50 (UACC-257) was 4.36 µM (inactive).
